Assay results published in publication PMC4853715, “Design, Synthesis and Antitumor Activity of Novel link-bridge and B-Ring Modified Combretastatin A-4 (CA-4) Analogues as Potent Antitubulin Agents” (Scientific Reports, 2016).

Tests used:
A549 = assay: MTT assay, antiproliferative activity; format: cell-based; conditions: Homo sapiens, 48 h, ± SD
Experimental: (§1) The in vitro anticancer activities of the prepared compounds against HepG2, Hela, MCF-7, A549, HT-29 and SSC-4 cell lines were evaluated as described in the literature. Target tumor cells were grown to log phase in DMEM medium supplemented with 10% fetal bovine serum. After reaching a dilution of 1 × 10^5 cells Ml^−1 with the medium, 100 μL of the obtained cell suspension was added to each well of 96-well culture plates. Subsequently, incubation was performed at 37 °C in 5% CO2 atmosphere for 12 h before the cytotoxicity assessment. Tested samples at preset concentrations were added to 6 wells with CA-4 being employed as a positive reference. After 48 h exposure period, 25 μL of PBS containing 2.5 mg mL^−1 of MTT (Sigma, USA) was added to each well. After 4 h, the medium was replaced by 150 μL DMSO to dissolve the purple formazan crystals produced. The absorbance at 570 nm of each well was measured with Synergy™ 2 Multi-Mode Microplate Reader. Cell viability (%) was calculated using the following equation: cell viability (%) = (Atreatment/Acontrol) × 100%. The data represented the mean of three independent experiments in triplicate and were expressed as means ± SD.

HepG2 = assay: MTT assay, antiproliferative activity; format: cell-based; conditions: Homo sapiens, 48 h, ± SD
Experimental: as §1

MCF-7 = assay: MTT assay, antiproliferative activity; format: cell-based; conditions: Homo sapiens, MCF7; MCF-7, MTT, 48 h, ± SD
Experimental: as §1

SSC-4 = assay: MTT assay, antiproliferative activity; format: cell-based; conditions: Homo sapiens; SSC-4, MTT, 48 h, ± SD
Experimental: as §1

Bovine brain tubulin = assay: Effects on tubulin polymerization (turbidimetric assembly); format: biochemical; conditions: 10 μM tubulin, 30 °C, 20 min incubation; read-out: Tubulin inhibition IC50
Experimental: Bovine brain tubulin was purified as described previously. To evaluate the effect of the compounds on tubulin assembly in vitro, compounds of varying concentrations were preincubated with 10 μM tubulin in glutamate buffer at 30 °C and then cooled to 0 °C. After addition of GTP, the mixtures were transferred to 0 °C cuvettes in a recording BioTek Synergy 4 multifunction microplate spectrophotometer and warmed up to 30 °C and the assembly of tubulin was observed turbidimetrically (TU660, USA).

[1] = test system: 293T, Macrophage, and L02; assay: MTT assay on non-cancer cell lines; format: cell-based, human
A549 cells = assay: Detection of intracellular ROS (DCFH-DA flow cytometry); format: cell-based, human; conditions: A549, versus control cells and positive control
Experimental: Intracellular ROS production was measured by use of active oxygen species assay kit (K0111, Beyotime, China). […] After 30 min of incubation in the darkness, cells were washed with DMEM for three times, and then fluorescent intensity was measured by the flow cytometer with excitation and emission wavelengths of 488 and 525 nm, respectively.

[2] = test system: Tubulin isolated from porcine brain tissue; assay: Tubulin polymerization assay (kit, absorbance 340 nm); format: biochemical; conditions: 37 °C
Experimental: Tubulin polymerization was determined with the tubulin polymerization assay kit (Cytoskeleton, Denver, CO which was purchased from Cytoskeleton, Beyotime, China. Tubulin isolated from porcine brain tissue was used in this commercial kit.) It is based on the principal that light is scattered by microtubules to an extent that is proportional to the concentration of the microtubule polymer. Compounds that interact with tubulin will alter the polymerization of tubulin, and this can be detected using a spectrophotometer. Tubulin polymerization dynamics was monitored through measuring the change of absorbance at 340 nm every 2 min for 30 min at 37 °C on a spectrophotometer (Perkin-Elmer).

[3] = Body weight of treated xenograft mice; format: in vivo, BALB/c nude mice; conditions: whole treatment period
Experimental: Male BALB/c nude mice, five weeks old and weighing 18–22 g, were supplied by Shanghai Laboratory Animal Limited Company. The mice were raised in air-conditioned rooms under controlled lighting (12 h light-dark cycle at 24 °C) and were fed with standard laboratory food and water ad libitum. Before injection into the mice, the A549 cells were harvested by trypsinization and washed three times with cold serum-free medium and then injected in a total volume of 0.1 mL using a 1 mL latex-free syringe (BD) within 30 min of harvest. Mice were inoculated subcutaneously with A549 cells (5.0 × 10^6) on their shoulders. […] The control group received 0.9% normal saline. Tumor size was measured once every 2 days in two per-pendicular dimensions with Vernier calipers and converted to tumor volume (TV) using the formula: (ab^2)/2, where a and b refer to the longer and shorter dimensions, respectively. The body weight of the animals was measured twice a week to assess toxicity of the treatments at the same time as the tumor dimension measurement and the mortality was monitored daily. After the treatments for eight weeks, the animals were euthanized by cervical dislocation. This study conformed to the Guide for the Care and Use of Laboratory Animals as published by the US National Institutes of Health and was approved by the Institutional Ethics Review Board of Nanjing University.

## COc1cc(/C=N/NC(=O)c2cn(Cc3ccccc3)c3ccccc23)cc(OC)c1OC [Compound 7]
A549
  IC50: 80 ± 10 nM
HepG2
  IC50: 630 ± 120 nM
MCF-7
  IC50: 640 ± 110 nM
SSC-4
  IC50: 35600 ± 1910 nM
Bovine brain tubulin
  IC50: 4460 nM
[1]
  cytotoxic effects on three normal human cells (in words): minimal
A549 cells
  intracellular ROS production: induced the production of significant amounts of ROS
[2]; 1.0 μM
  tubulin polymerization (in words): slightly inhibiting
[2]; 5.0 μM
  tubulin polymerization (in words): nearly completely blocked
[3]
  body weight changes during treatment: no significant weight changes
